Test results: publication PMC5035034, “Carbohydrate-Binding Non-Peptidic Pradimicins for the Treatment of Acute Sleeping Sickness in Murine Models” (PLoS Pathogens, 2016)

Biological target: T1, VSG221 (variant surface glycoprotein 221, MITat 1.2) (Trypanosoma brucei, UniProt P26332)
T1 construct: soluble form VSG (sVSG) purified from parental bloodstream forms, N-glycosylated (Asn263, Asn428)
Experiment: SPR (Biacore T200) on immobilized VSG221, […]; supported by HHA-FITC and CV-N-FITC competition on live parasites
Type: binding

CN[C@@H]1[C@H](O[C@@H]2O[C@H](CO)[C@@H](O)[C@H](OS(=O)(=O)O)[C@H]2O)[C@@H](O)[C@H](O[C@H]2c3cc(C)c(C(=O)N[C@H](C)C(=O)O)c(O)c3-c3c(cc4c(c3O)C(=O)c3cc(OC)cc(O)c3C4=O)[C@@H]2O)O[C@@H]1C [PRM-S, pradimicin S]
SPR (Biacore T200) on immobilized VSG221, 1.56 to 50 uM; supported by HHA-FITC a: A significant concentration-dependent binding to the parental Tb BSF VSG221-bound sensorchip was observed
